# Where two headings read alike, the source gives them in different places.
# What was measured:
# [1] = system: methicillin-resistant Staphylococcus aureus (MRSA); experiment: Determination of MIC values (BHI broth, 96 well microtiter plate); format: cell-based; conditions: Staphylococcus aureus, MRSA, BHI broth, read-out: MIC MRSA
# Method: (§1) Stock solutions of compounds are prepared with a concentration of 10 mg/mL. These solutions are then diluted 1:4 to give a concentration of 2.5 mg/mL. The compounds are then serially diluted 1:2 for 6 iterations. The concentrations made for each compound are 2.5, 1.25, 0.625, 0.3125, 0.156, 0.078, and 0.039 mg/mL. A control sample (no compound) is run along with each compound tested. All dilutions are made in DMSO.
# (§2) All wells of a 96 well microtiter plate are filled with 100 μL of BHI (Brain-Heart Infusion) broth. Columns on the plate are labeled 1-12, and rows are labeled A-H. Each column of wells is used to test one series of diluted compounds. Into each well of 100 μL of BHI broth, 1 μL of diluted compound is placed for a 1:100 dilution. This makes the final concentration of each drug series 25, 12.5, 6.25, 3.125, 1.56, 0.78, 0.39, and 0 μg/mL.
# (§3) Test Organism: A sterile 15 mL screw cap tube is filled wth 3 mL of BHI broth. Next, 2-3 colonies of test organism are inoculated into the tube. The tube is then incubated at 37° C. in a CO2 (approx. 7%) atmosphere jar. The organisms are allowed to grow to the density of a 0.5 McFarland standard (10^8 cells/mL). The organism is then inoculated into each well of the microtiter plate containing the diluted compounds to be tested for MIC. The inoculum is 1 μL in volume and represents 10^5 to 10^6 cells/mL.
# (§4) After inoculation the plates are covered and incubated at 37° C. and approx. 7-10% CO2 atmosphere overnight (about 16 hours). The plates are then observed for growth, the well with the lowest concentration of drug and no observable growth represents the well determining the MIC.
# [2] = system: vancomycin-resistant Enterococcus spp. (VRE); experiment: as above; format: cell-based; conditions: Enterococcus, VRE, BHI broth, read-out: MIC VREF
# Method: as §1, §2, §3, §4
# [3] = 16 h, 37° C., overnight (about 16 hours)
"MIC [1, 3] [µg/mL]","MIC [2, 3] [µg/mL]",SMILES,also measured
> 25,> 25,O=C(c1cc(-c2c[nH]c3ccccc23)nc2ccccc12)N1CCNCC1 [compound 8],
< 25,> 25,NCc1ccc(CNC(=O)c2cc(-c3c[nH]c4ccc(F)cc34)nc3ccccc23)cc1 [Example 15],
,,Cn1cc(-c2ccc3cc(Cl)ccc3n2)c2ccc(F)cc21 [Example 212],"MIC ([1]; overnight 37° C.): > 25 µg/mL; MIC ([2]; VREF, overnight 37° C.): > 25 µg/mL"
< 25,< 25,COc1cc2nc(-c3c[nH]c4ccc(Br)cc34)cc(C(=O)NCc3ccc(CN)cc3)c2cc1OC [Example 98],
> 25,> 25,Cn1cc(-c2ccc3ccccc3n2)c2ccccc21 [Example 176],
< 25,< 25,O=C(c1cc(-c2c[nH]c3ccc(Br)cc23)nc2ccccc12)N1CCC(O)(c2ccccc2)CC1 [Example 36],
> 25,> 25,Fc1cccc2[nH]cc(-c3ccc4cc(Cl)ccc4n3)c12 [Example 192],
< 25,< 25,NCc1ccc(CNC(=O)c2cc(-c3c[nH]c4cc(F)ccc34)nc3ccccc23)cc1 [Example 80],
,,Cc1ccc2nc(-c3c[nH]c4ccc(C#N)cc34)ccc2c1 [Example 433],"MIC ([1]; 16 h, 37° C., about 16 hours): < 7 µg/mL; MIC ([2]; 16 h, 37° C., about 16 hours): > 25 µg/mL"
< 7,> 25,O=C(Nc1ccc(O)cc1)c1cc(-c2c[nH]c3ccc(Br)cc23)nc2ccccc12 [Example 37],
< 7,< 7,NCc1ccc(CNC(=O)c2cc(-c3c[nH]c4ccc(Br)cc34)nc3ccc(Cl)cc23)cc1 [Example 121],
,,Cn1c(-c2ccccc2)c(-c2ccc3cc(Cl)ccc3n2)c2ccccc21 [Example 220],"MIC ([1]; overnight 37° C.): < 25 µg/mL; MIC ([2]; VREF, overnight 37° C.): > 25 µg/mL"
< 25,< 25,Brc1ccc2[nH]cc(-c3cc(CN4CCNCC4)c4ccccc4n3)c2c1 [Example 28],
< 25,< 25,O=C(NC1CCOC1=O)c1cc(-c2c[nH]c3ccc(Br)cc23)nc2ccccc12 (centres unmarked) [Example 34],
> 25,> 25,Cc1[nH]c2ccccc2c1-c1cc(C(=O)NCc2ccc(CN)cc2)c2ccccc2n1 [Example 23],
,,Cc1c(-c2ccc3cc(Cl)ccc3n2)c2ccccc2n1C [Example 215],"MIC ([1]; overnight 37° C.): < 7 µg/mL; MIC ([2]; VREF, overnight 37° C.): < 25 µg/mL"
> 25,> 25,Cn1cc(-c2ccc3cc(Cl)ccc3n2)c2cc(Br)ccc21 [Example 167],
> 25,> 25,O=C(Nc1ccc(Cl)cc1C(F)(F)F)N1CCN(C(=O)c2cc(-c3c[nH]c4ccc(Br)cc34)nc3ccccc23)CC1 [Example 66],
> 25,> 25,O=C(O)c1cc(-c2c[nH]c3cccc(F)c23)nc2ccccc12 [Example 77],
< 7,< 25,NC(=O)C(Cc1ccc([N+](=O)[O-])cc1)NC(=O)c1cc(-c2c[nH]c3ccc(Cl)cc23)nc2ccccc12 (centres unmarked) [Example 148],

"MIC [1, 3] [µg/mL]","MIC [2, 3] [µg/mL]",SMILES,also measured
< 25,< 25,NCc1ccc(CNC(=O)c2cc(-c3ccc4ccccc4c3)nc3ccccc23)cc1 [Example 87],
> 25,> 25,Cn1cc(-c2cc(C(=O)NCc3ccc(CN)cc3)c3ccccc3n2)c2ccccc21 [Example 12],
,,CN(CC#Cc1ccc2c(C(=O)NCc3ccc(CN)cc3)cc(-c3c[nH]c4ccc(Br)cc34)nc2c1)C1CCCCC1 [Example 264],"MIC ([1]; overnight 37° C.): < 7 µg/mL; MIC ([2]; VREF, overnight 37° C.): < 25 µg/mL"
> 25,> 25,N=C(N)NCCC[C@H](NC(=O)c1cc(-c2c[nH]c3ccc(Br)cc23)nc2ccccc12)C(=O)O [Example 88],
< 7,> 25,NC(=O)C(Cc1ccc([N+](=O)[O-])cc1)NC(=O)c1cc(-c2c[nH]c3ccc(Br)cc23)nc2ccccc12 (centres unmarked) [Example 149],
< 25,> 25,COc1ccc2[nH]cc(-c3ccc4ccccc4n3)c2c1 [Example 185],
> 25,> 25,O=C(O)c1cc(-c2c[nH]c3ccccc23)nc2ccc(I)cc12 [Example 155],
> 25,> 25,NCc1ccc(CNC(=O)c2cc(-c3c[nH]c4cccc(Cl)c34)nc3ccccc23)cc1 [Example 21],
> 25,> 25,Cn1ccc(-c2cc(C(=O)NCc3ccc(CN)cc3)c3ccccc3n2)c1 [Example 86],
< 7,< 7,CNCCC(C)N(C)C(=O)c1cc(-c2c[nH]c3ccc(Br)cc23)nc2ccccc12 (centres unmarked) [Example 33],
< 25,< 25,COC(=O)C(=O)N1CCN(C(=O)c2cc(-c3c[nH]c4ccc(Br)cc34)nc3ccccc23)CC1 [Example 29],
< 25,> 25,CN1CCN(C(=O)c2cc(-c3c[nH]c4ccc(Br)cc34)nc3ccccc23)CC1 [Example 30],
< 25,< 25,NCc1ccc(CNC(=O)c2cc(-c3c[nH]c4ccc(OCc5ccccc5)cc34)nc3ccccc23)cc1 [Example 19],
> 25,> 25,Cn1cc(-c2ccc3ccccc3n2)c2cc(Br)ccc21 [Example 178],
< 7,< 25,NCc1ccc(CNC(=O)c2cc(-c3c[nH]c4ccc(Cl)cc34)nc3ccccc23)cc1 [Example 16],
> 25,> 25,Cn1cc(-c2ccc3cc(Cl)ccc3n2)c2cc(Cl)ccc21 [Example 180],
,,Cn1cc(-c2cc(C(=O)NCc3ccc(CN)cc3)c3cc(I)ccc3n2)c2cc(Br)ccc21 [Example 269],"MIC ([1]; overnight 37° C.): < 7 µg/mL; MIC ([2]; VREF, overnight 37° C.): < 7 µg/mL"
> 25,> 25,Cc1ccc2nc(-c3ccncc3)cc(C(=O)NCc3ccc(CN)cc3)c2c1 [Example 95],
> 25,> 25,O=C(O)c1cc(-c2c[nH]c3cc(F)ccc23)nc2ccccc12 [Example 78],
< 7,< 25,NCc1ccc(CNC(=O)c2cc(-c3c[nH]c4ccc(Br)cc34)nc3ccc(C#CCN4CCOCC4)cc23)cc1 [Example 74],

"MIC [1, 3] [µg/mL]","MIC [2, 3] [µg/mL]",SMILES,also measured
< 7,> 25,Cc1[nH]c2ccccc2c1-c1ccc2cc(Cl)ccc2n1 [Example 197],
> 25,> 25,NCCC(=O)NCc1ccc(CNC(=O)c2cc(-c3c[nH]c4ccc(Br)cc34)nc3ccccc23)cc1 [Example 72],
,,Oc1ccc2[nH]cc(-c3ccc4cc(Cl)ccc4n3)c2c1 [Example 205],"MIC ([1]; overnight 37° C.): < 25 µg/mL; MIC ([2]; VREF, overnight 37° C.): < 25 µg/mL"
< 7,< 7,Cc1cc2nc(-c3c[nH]c4ccc(Br)cc34)cc(C(=O)NCc3cccc(CN)c3)c2cc1C [Example 129],
> 25,> 25,NCc1ccc(CNC(=O)c2ccc3nc(-c4c[nH]c5ccc(Br)cc45)ccc3c2)cc1 [compound 6],
> 25,> 25,NCc1ccc(CNC(=O)c2cc(-c3ccccc3)nc3ccccc23)cc1 [Example 81],
> 25,> 25,COC(=O)c1cc(-c2c[nH]c3ccc(Br)cc23)nc2ccccc12 [Example 24],
< 25,< 25,O=C(c1cc(-c2c[nH]c3ccc(Br)cc23)nc2ccccc12)N1CCNCC1 [compound 11],
< 7,< 7,O=C(c1cc(-c2c[nH]c3ccc(Br)cc23)nc2ccc(Cl)cc12)N1CCCNCC1 [Example 135],
,,CN(CC#Cc1ccc2nc(-c3c[nH]c4ccc(Br)cc34)cc(C(=O)NCc3ccc(CN)cc3)c2c1)C1CCCCC1 [Example 237],"MIC ([1]; overnight 37° C.): < 7 µg/mL; MIC ([2]; VREF, overnight 37° C.): < 7 µg/mL"
,,NCc1ccc(CNC(=O)c2cc(-c3c[nH]c4ccc(Br)cc34)nc3cc(Cl)c(C#CCN4CCCCC4)cc23)cc1 [Example 268],"MIC ([1]; overnight 37° C.): < 7 µg/mL; MIC ([2]; VREF, overnight 37° C.): < 7 µg/mL"
< 7,> 25,O=C(NCc1nc2ccccc2[nH]1)c1cc(-c2c[nH]c3ccc(Br)cc23)nc2ccccc12 [Example 38],
< 25,< 25,NCCCCCNC(=O)c1cc(-c2c[nH]c3ccc(Br)cc23)nc2ccccc12 [Example 41],
< 25,< 25,NCCCNC(=O)c1cc(-c2c[nH]c3ccc(Br)cc23)nc2ccccc12 [compound 3],
> 25,> 25,NCc1ccc(CNC(=O)c2cc(-c3c[nH]c4ccc(Br)cc34)nc3ncccc23)cc1 [Example 162],
> 25,> 25,NCc1ccc(CNC(=O)c2cc(-c3ccccn3)nc3ccccc23)cc1 [Example 93],
< 25,< 25,O=C(NCCN1CCCC1)c1cc(-c2c[nH]c3ccc(Br)cc23)nc2ccccc12 [Example 44],
> 25,> 25,NCc1cccc(CNC(=O)c2cc(-c3ccsc3)nc3ccc(Br)cc23)c1 [Example 166],

# From patent publication US6376670B1, “Quinoline-indole antimicrobial agents, uses and compositions related thereto” (Sepracor Inc., priority 1997, dated 2002)
